The source of these data is patent publication US11529341B2, “Bicyclic compounds as inhibitors of PD1/PD-L1 interaction/activation” (JUBILANT PRODEL LLC, priority 2018, dated 2022).

Usually IC50 stands for the midpoint of a concentration-inhibition curve. Low readings indicate higher potency, high ones lower potency.

SMILES strings stand for the structures. A value given as a limit tells only on which side of the number the result lay.

The experiment deals with T1, PD-1/PD-L1 interaction (Homo sapiens, UniProt Q9NZQ7).
T1 construct: Tag1 (undisclosed kit tag); purchased CisBio 63ADK000CPAPEG
T1 sequence (Q9NZQ7 19-238 limits assumed): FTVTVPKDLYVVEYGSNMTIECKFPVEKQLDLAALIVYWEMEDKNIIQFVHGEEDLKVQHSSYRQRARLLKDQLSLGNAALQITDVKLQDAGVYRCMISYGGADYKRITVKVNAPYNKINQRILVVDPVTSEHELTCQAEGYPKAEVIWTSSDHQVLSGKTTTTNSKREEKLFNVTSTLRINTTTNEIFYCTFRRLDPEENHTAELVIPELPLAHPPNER
Description: PD-1/PD-L1 Homogenous Time-Resolved Fluorescence (HTRF) binding assay (CisBio kit). The conditions noted are these: Biochemical PD1/PD-L1 inhibition. As for the experimental part:
PD-L1 Enzyme Assay: Homogenous Time-Resolved Fluorescence (HTRF) Binding Assay
All binding studies were performed using PD-1/PD-L1 Binding Assay Kit from CisBio (Catalog #63ADK000CPAPEG), according to the manufacturer's protocol. The interaction between Tag1-PD-1 and […] was detected by anti-Tag1-Eu^3+ (HTRF donor) and anti-Tag2-XL665 (HTRF acceptor). When the donor and acceptor antibodies were brought to close proximity due to PD-1 and PD-L1 binding, excitation of the donor antibody triggered fluorescent resonance energy transfer (FRET) towards the acceptor antibody, which in turn emitted specifically at 665 nm. This specific signal is positively proportional to PD-1/PD-L1 interaction. The compounds blocking PD-1/PD-L1 interaction will cause a reduction in HTRF signal. The necessary reagents were mixed in the following order: 2 μl compounds (or diluents buffer), 4 μl PD-L1 protein, 4 μl PD-1 protein. After an incubation of 15 minutes, 5 μl of anti-Tag1-Eu^3+ and 5 μl of anti-Tag2-XL665 were added. The plate was sealed and incubated at room temperature for 1 h. The fluorescence emission was read at two different wavelengths (665 nm and 620 nm) on a BMG PheraStar® multi-plate reader. Results were calculated from the 665 nm and 620 nm fluorescence signal and expressed in HTRF ratio=(665 nm/620 nm)×10^4.
(In general: In TR-FRET formats the signal depends on donor and acceptor labels being close together.)
As to `Cc1c(COc2cc(OCc3cccc(C#N)c3)c(CN3CCCC[C@H]3C(N)=O)c3c2CCC3)cccc1-c1ccccc1` [Compound 37, (S)-1-((5-((3-cyanobenzyl)oxy)-7-((2-methyl-[1,1′-biphenyl]-3-yl)methoxy)-2,3-dihydro-1H-inden-4-yl)methyl)piperidine-2-carboxamide], the IC50 was < 0.1 µM.
`Cc1c(COc2cc(OCc3cncc(C#N)c3)c(CN3CCOC[C@H]3C(=O)O)c3c2CCC3)cccc1-c1ccccc1` [Compound 50, (S)-4-((5-((5-cyanopyridin-3-yl)methoxy)-7-((2-methyl-[1,1′-biphenyl]-3-yl)methoxy)-2,3-dihydro-1H-inden-4-yl)methyl)morpholine-3-carboxylicacid]: the IC50 is < 0.1 µM.
For `Cc1c(COc2cc(OCc3cccc(C#N)c3)c(CN3CCC[C@@H]4C[C@@]43C(=O)O)c3c2CCC3)cccc1-c1ccccc1` (racemic) [Compound 43, rac-(1R,6S)-2-((5-((3-cyanobenzyl)oxy)-7-((2-methyl-[1,1′-biphenyl]-3-yl)methoxy)-2,3-dihydro-1H-inden-4-yl)methyl)-2-azabicyclo[4.1.0]heptane-1-carboxylic acid], the IC50 was < 0.1 µM.
As to `CC(=O)NCCCCCC(=O)NCc1c(OCc2cccc(C#N)c2)cc(OCc2cccc(-c3ccccc3)c2C)c2c1CCC2` [Compound 91, 6-acetamido-N-((5-((3-cyanobenzyl)oxy)-7-((2-methyl-[1,1′-biphenyl]-3-yl)methoxy)-2,3-dihydro-1H-inden-4-yl)methyl)hexanamide], the IC50 was > 0.5 µM.
For the compound `COc1cc(OCc2cccc(-c3ccccc3)c2C(F)(F)F)c2c(c1CN1C[C@H](O)C[C@H]1C(=O)O)CCC2` [Compound 76, (2S,4R)-4-hydroxy-1-((5-methoxy-7-((2-(trifluoromethyl)-[1,1′-biphenyl]-3-yl)methoxy)-2,3-dihydro-1H-inden-4-yl)methyl)pyrrolidine-2-carboxylic acid], the half-inhibitory concentration (IC50) is > 0.5 µM.
Consider `COc1cc(OCc2cccc(-c3ccccc3)c2C#N)c2c(c1CN1CCOC[C@H]1C(=O)O)CCC2` [Compound 59, (S)-4-((7-((2-cyano-[1,1′-biphenyl]-3-yl)methoxy)-5-methoxy-2,3-dihydro-1H-inden-4-yl)methyl)morpholine-3-carboxylic acid], for which the half-maximal inhibitory concentration (IC50) was < 0.1 µM.
For `Cc1cc(CN2CCCC[C@H]2C(=O)O)c2c(c1OCc1cccc(-c3ccccc3)c1C)CCC2` [Compound 4, (S)-1-((6-methyl-7-((2-methyl-[1,1′-biphenyl]-3-yl)methoxy)-2,3-dihydro-1H-inden-4-yl)methyl)piperidine-2-carboxylic acid], the IC50 was 0.1 to 0.5 µM.
In the case of `COc1cc(OCc2cccc(-c3ccccc3)c2C#N)c2c(c1CNCC(=O)O)CCC2` [Compound 60, ((7-((2-cyano-[1,1′-biphenyl]-3-yl)methoxy)-5-methoxy-2,3-dihydro-1H-inden-4-yl)methyl)glycine], the IC50 was < 0.1 µM.
`N#Cc1cncc(COc2cc(OCc3cccc(-c4ccccc4)c3C#N)c3c(c2CN2CCCC[C@H]2C(=O)O)CCC3)c1` [Compound 69, (S)-1-((7-((2-cyano-[1,1′-biphenyl]-3-yl)methoxy)-5-((5-cyanopyridin-3-yl)methoxy)-2,3-dihydro-1H-inden-4-yl)methyl)piperidine-2-carboxylic acid]: the 50% inhibitory concentration (IC50) was < 0.1 µM.
For `Cc1c(COc2cc(OCc3cccc(C#N)c3)c(CN)c3c2CCC3)cccc1-c1ccccc1` [Compound 89, 3-(((4-(aminomethyl)-7-((2-methyl-[1,1′-biphenyl]-3-yl)methoxy)-2,3-dihydro-1H-inden-5-yl)oxy)methyl)benzonitrile], the IC50 is < 0.1 µM.
Turning to `Cc1c(COc2ccc(CNC(C)C(=O)O)c3c2CCC3)cccc1-c1ccccc1` (centres unmarked) [Compound 24, ((7-((2-methyl-[1,1′-biphenyl]-3-yl)methoxy)-2,3-dihydro-1H-inden-4-yl)methyl)alanine], the IC50 is > 0.5 µM.
